Measured values: patent US20240124381A1, “Renewable Bio-advantaged plasticizer generated by reductive coupling of lignin-derived aromatics” (Alliance for Sustainable Energy, LLC, priority 2022, published 2024)

How the values were obtained:
[1] = Glass transition temperature of plasticized PVC by differential scanning calorimetry (DSC); type: physicochemical; conditions: PVC composite with 10 wt % plasticizer; unplasticized PVC 83.0 ° C.; lower preferred
Text: (§1) FIG. 5 provides thermal analysis of lignin-derived biaryl plasticizers. From left to right: unplasticized PVC, 10 wt % plasticized PVC with DEHP, and 10 wt % plasticized PVC with lignin-derived biaryl plasticizers.
(§2) Plasticizer properties of lignin-derived biaryls. The above results provide access to all possible homo- and cross-coupled BPDA derivatives of H, G, and S. These structures provide the basis for testing of these materials as plasticizers for PVC and comparison of their performance relative to the existing petroleum-derived incumbent, di(2-ethylhexyl)phthalate (DEHP). Each of the BPDA methyl esters was subjected to Ti(OBu)4-promoted transesterification with 2-ethylhexanol to afford the corresponding DEH-BPDA derivatives, designated H—H^PL, H-G^PL, H—S^PL, G-G^PL, G-S^PL, and S—S^PL. The thermal properties of these structures were characterized by thermogravimetric analysis (TGA) and differential scanning calorimetry (DSC). DEHP and the DEH-BPDA derivatives were then individually integrated with PVC at 10 wt %, and the composites were analyzed by TGA and DSC to identify their glass transition temperature (Tg) and the temperature at which the polymer degrades with 10% or 50% loss of its original weight (Td10, Td50). The former value reflects the ability of the plasticizer to soften PVC, while the latter values reflect the thermostability of the composite material. […]

[2] = Thermostability of plasticized PVC by thermogravimetric analysis (TGA); type: physicochemical; conditions: PVC composite with 10 wt % plasticizer; PVC itself 272 ° C.; higher preferred
Text: as §1, §2

## CCCCC(CC)COC(=O)c1ccccc1C(=O)OCC(CC)CCCC (centres unmarked) [DEHP, di(2-ethylhexyl)phthalate]
[1]
  glass transition temperature (Tg): 52.1 °C
[2]
  Td10 (temperature at which the polymer degrades with 10% loss of its original weight): 253 °C
